These compounds were tested on progranulin (PGRN) secretion, BV-2 cells (assay: PGRN assay: progranulin induction cellular assay (ELISA of secreted mouse PGRN)). Conditions: not given.
Assay type: cell-based
Summary of the method: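 Progranulin induction measured in BV-2 cells plated at about 80% confluence the day before, given 1 h to attach, then incubated 16 h. Secreted mouse PGRN quantified by ELISA.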
O=C(O[C@H]1CN2CCC1(F)CC2)N1CCc2ccccc2[C@@H]1c1ccc(F)cc1 (single isomer, unassigned) [Compound 2127] gave an EC50 of 1860 nM.
In the case of O=C(O[C@@H]1CN2CCC1CC2)N1CCn2nnnc2C1c1ccc(F)cc1 (stereo partly shown) [Compound 2124], the EC50 is reported as 5340 nM.

Same assay, conditions: Mus musculus, BV-2
With O=C(O[C@@H]1CN2CCC1CC2)N1CCc2ccccc2[C@H]1c1ccc2[nH]c(=O)sc2c1 [Compound 2012] the EC50 was > 10000 nM.
For CNC(=O)c1ccc2c(c1)CCN(C(=O)O[C@@H]1CN3CCC1CC3)[C@@H]2c1ccc(F)cc1 [Compound 2101], the EC50 was > 10000 nM.
With COC(=O)c1ccc2c(c1)CCN(C(=O)O[C@@H]1CN3CCC1CC3)[C@@H]2c1ccc(F)cc1 [Compound 2087] the EC50 was > 10000 nM.
With CNC(=O)c1ccc2c(c1)CCN(C(=O)O[C@@H]1CN3CCC1CC3)[C@H]2c1ccc(F)cc1 [Compound 2100] the EC50 was > 10000 nM.

Same assay, conditions: Mus musculus, BV-2, PGRN assay, Table C; secreted mouse PGRN in cell culture medium, ELISA
O=C(O[C@H]1CCCNC1)N1CCc2ccccc2[C@@H]1c1ccc(F)cc1 (single isomer, unassigned) [Compound 2168] showed an EC50 of 2540 nM.
For O=C(OCC12CCN(CC1)CC2)N1CCc2ccccc2[C@@H]1c1ccc(OCc2ncccn2)cc1 [Compound 2155], the EC50 was > 10000 nM.
CN1CCC(COC(=O)N2CCc3ccccc3[C@@H]2c2ccc(F)cc2)CC1 [Compound 2173] showed an EC50 of 3220 nM.
With CNC(=O)c1ccc2c(c1)[C@H](c1ccc(F)cc1)N(C(=O)NCC13CCN(CC1)CC3)CC2 [Compound 2119, (S)-1-(4-fluorophenyl)-N7-methyl-N2-(quinuclidin-4-ylmethyl)-3,4-dihydroisoquinoline-2,7(1H)-dicarboxamide] the EC50 was > 10000 nM.
Compound O=C(O[C@@H]1CCCNC1)N1CCc2ccccc2[C@@H]1c1ccc(F)cc1 (single isomer, unassigned) [Compound 2181] has an EC50 of 220 nM.
C#CCN1CCC(OC(=O)N2CCc3ccccc3[C@@H]2c2ccc(F)cc2)CC1 [Compound 2195, 1-(prop-2-yn-1-yl)piperidin-4-yl (S)-1-(4-fluorophenyl)-3,4-dihydroisoquinoline-2(1H)-carboxylate] showed an EC50 of 1700 nM.
O=C(CCC12CCN(CC1)CC2)N1CCc2ccccc2[C@@H]1c1ccc(F)cc1 [Compound 2037] was tested, and the EC50 was > 8090 nM.
Compound COCCOCCOc1ccc(COc2ccc([C@H]3c4ccccc4CCN3C(=O)OCC34CCN(CC3)CC4)cc2)cc1 [Compound 2046] has an EC50 of 1720 nM.
For COC(C(=O)N1CCc2ccccc2[C@@H]1c1ccc(F)cc1)C1CN2CCC1CC2 (stereo partly drawn) [Compound 2175, 1-((S)-1-(4-fluorophenyl)-3,4-dihydroisoquinolin-2(1H)-yl)-2-methoxy-2-(quinuclidin-3-yl) ethenone], the EC50 was 4130 nM.
With O=C(OCC12CCN(CC1)CC2)N1CCc2ccccc2[C@H]1c1ccc(OCc2cncnc2)cc1 [Compound 2150] the EC50 was 9460 nM.
Compound CN1C2CCC1[C@H](OC(=O)N1CCc3ccccc3[C@H]1c1ccc(F)cc1)CC2 (stereo partly shown) [Compound 2017] has an EC50 of 722 nM.
With O=S(=O)(CCN1CCc2ccccc2[C@@H]1c1ccc(F)cc1)C12CCN(CC1)CC2 [Compound 2131, (S)-4-((2-(1-(4-fluorophenyl)-3,4-dihydroisoquinolin-2(1H)-yl)ethyl)sulfonyl)quinuclidine] the EC50 was 4190 nM.
Work on COC(=O)c1ccc2c(c1)CCN(C(=O)NCC13CCN(CC1)CC3)[C@H]2c1ccc(F)cc1 [Compound 2068] yielded an EC50 of 3370 nM.
CN1C[C@H]2CC[C@@H](C1)[C@H]2OC(=O)N1CCc2ccccc2[C@@H]1c1ccc(F)cc1 [Compound 2008] was tested, and the EC50 was 559 nM.
COc1ncc(COc2ccc([C@@H]3c4ccccc4CCN3C(=O)OCC34CCN(CC3)CC4)cc2)cn1 [Compound 2146] was tested, and the EC50 was 1610 nM.
With O=C(N1CCc2ccccc2[C@@H]1c1ccc(F)cc1)C(F)(F)C1(O)CN2CCC1CC2 (stereo partly drawn) [Compound 2198, 2,2-difluoro-1-((S)-1-(4-fluorophenyl)-3,4-dihydroisoquinolin-2(1H)-yl)-2-(3-hydroxyquinuclidin-3-yl)ethan-1-one] the EC50 was > 10000 nM.
COC(=O)c1ccc2c(c1)[C@H](c1ccc(F)cc1)N(C(=O)N[C@@H]1CN3CCC1CC3)CC2 [Compound 2116, methyl (S)-1-(4-fluorophenyl)-2-(((S)-quinuclidin-3-yl)carbamoyl)-1,2,3,4-tetrahydroisoquinoline-7-carboxylate] was tested, and the EC50 was > 10000 nM.
In the case of CS(=O)(=O)c1ccc2c(c1)[C@H](c1ccc(F)cc1)N(C(=O)N[C@@H]1CN3CCC1CC3)CC2 [Compound 2056], the EC50 is reported as > 10000 nM.
With CN1CCC(COC(=O)N2CCc3ccccc3[C@H]2c2ccc(F)c(F)c2)CC1 (single isomer, unassigned) [Compound 2139, (1-methylpiperidin-4-yl)methyl-1-(3,4-difluorophenyl)-3,4-dihydroisoquinoline-2(1H)-carboxylate] the EC50 was > 10000 nM.
With C#CCOc1ccc2c(c1)[C@H](c1ccc(F)cc1)N(C(=O)NCC13CCN(CC1)CC3)CC2 [Compound 2192, (S)-1-(4-fluorophenyl)-7-(prop-2-yn-1-yloxy)-N-(quinuclidin-4-ylmethyl)-3,4-dihydroisoquinoline-2(1H)-carboxamide] the EC50 was > 10000 nM.
N#Cc1ccc2c(c1)[C@@H](c1ccc(F)cc1)N(C(=O)N[C@@H]1CN3CCC1CC3)CC2 [Compound 2039, 7-cyano-1-(4-fluorophenyl)-N—((S)-quinuclidin-3-yl)-3,4-dihydroisoquinoline-2(1H)-carboxamide] was tested, and the EC50 was > 10000 nM.
For CNC(=O)c1ccc2c(c1)[C@@H](c1ccc(F)cc1)N(C(=O)OCC13CCN(CC1)CC3)CC2 [Compound 2060], the EC50 was > 10000 nM.
COCCOCCOc1ccc(COc2ccc([C@@H]3c4ccccc4CCN3C(=O)OCC34CCN(CC3)CC4)cc2)cc1 [Compound 2047] was tested, and the EC50 was > 2690 nM.
CN1CC2CCC(C1)C2OC(=O)N1CCc2ccccc2[C@@H]1c1ccc(F)cc1 (single isomer, unassigned) [Compound 2093] gave an EC50 of 379 nM.
For COC(=O)c1ccc2c(c1)[C@H](c1ccc(F)cc1)N(C(=O)OCC13CCN(CC1)CC3)CC2 [Compound 2044], the EC50 was 4710 nM.
With O=C1C[C@H](COC(=O)N2CCc3ccccc3[C@@H]2c2ccc(F)cc2)CCN1 (single isomer, unassigned) [Compound 2185, (1 S)-(2-oxopiperidin-4-yl)methyl 1-(4-fluorophenyl)-3,4-dihydroisoquinoline-2(1H)-carboxylate] the EC50 was > 10000 nM.
In the case of O=C(OCC1CCNCC1)N1CCc2ccccc2[C@@H]1c1ccc(F)cc1 [Compound 2170], the EC50 is reported as 1590 nM.

Same assay, conditions: Mus musculus, BV-2, PGRN assay, Table D; secreted mouse PGRN in cell culture medium, ELISA
For O=C(O[C@H]1CNCCOC1)N1CCc2ccccc2[C@@H]1c1ccc(F)cc1 [Compound 2263], the EC50 was 1280 nM.
CN(C(=O)N1CCc2ccccc2[C@@H]1c1ccc(F)cc1)[C@@H]1CCNC1 [Compound 2253, 1-(4-fluorophenyl)-N-methyl-((R)-pyrrolin-3-yl)-3,4-dihydroisoquinoline-2(1H)-carboxamide] was tested, and the EC50 was 110 nM.
O=C(N[C@H]1CNCC12CC2)N1CCc2ccccc2[C@@H]1c1ccc(F)cc1 [Compound 2280] showed an EC50 of 1180 nM.
For NC[C@@H]1CCN(C(=O)N2CCc3ccccc3[C@@H]2c2ccc(F)cc2)C1 [Compound 2279, ((S)-3-(aminomethyl)pyrrolidin-1-yl)((S)-1-(4-fluorophenyl)-3,4-dihydroisoquinolin-2(1H)-yl)methanone], the EC50 was 428 nM.
O=C(N1CCN2CCC1CC2)N1CCc2ccccc2[C@@H]1c1ccc(F)cc1 [Compound 2252] was tested, and the EC50 was 120 nM.
With CN1CC[C@H](O)[C@@H](O)[C@@H]1COC(=O)N1CCc2ccccc2[C@@H]1c1ccc(F)cc1 (single isomer, unassigned) [Compound 2304] the EC50 was 2330 nM.
O=C1N[C@H](CNC(=O)N2CCc3ccccc3[C@@H]2c2ccc(F)cc2)CO1 [Compound 2259, (S)-1-(4-fluorophenyl)-N—(((R)-2-oxooxazolidin-4-yl)methyl)-3,4-dihydroisoquinoline-2(1H)-carboxamide] was tested, and the EC50 was > 10000 nM.
Work on O=C(N[C@@H]1CCNC1)N1CCc2ccccc2[C@@H]1c1ccc(F)cc1 [Compound 2223] yielded an EC50 of 1580 nM.
With CNC[C@H]1CN(C(=O)N2CCc3ccccc3[C@@H]2c2ccc(F)cc2)CCO1 [Compound 2307] the EC50 was 483 nM.
For CN(C(=O)N1CCc2ccccc2[C@@H]1c1ccc(F)cc1)[C@H]1CNCC1(F)F [Compound 2297, (S)—N—((S)-4,4-difluoropyrrolidin-3-yl)-1-(4-fluorophenyl)-N-methyl-3,4-dihydroisoquinoline-2(1H)-carboxamide], the EC50 was > 10000 nM.
In the case of CN(CC1CNC1)C(=O)N1CCc2ccccc2[C@@H]1c1ccc(F)cc1 [Compound 2283, (S)—N-(azetidin-3-ylmethyl)-1-(4-fluorophenyl)-N-methyl-3,4-dihydroisoquinoline-2(1H)-carboxamide], the EC50 is reported as > 10000 nM.
Compound NC[C@H]1CN(C(=O)N2CCc3ccccc3[C@@H]2c2ccc(F)cc2)CCO1 [Compound 2303] has an EC50 of 329 nM.
In the case of O=C(N[C@@H]1CNCC1(F)F)N1CCc2ccccc2[C@@H]1c1ccc(F)cc1 (stereo in doubt) [Compound 2244, (1 S)—N-(4,4-difluoropyrrolidin-3-yl)-1-(4-fluorophenyl)-3,4-dihydroisoquinoline-2(1H)-carboxamide], the EC50 is reported as 3260 nM.
For CN(C(=O)N1CCc2ccccc2[C@H]1c1ccc(F)cc1)[C@@H]1CCCNC1 (single isomer, unassigned) [Compound 2212], the EC50 was 3050 nM.
For CN1[C@H]2CC[C@@H]1[C@H](NC(=O)N1CCc3ccccc3[C@@H]1c1ccc(F)cc1)C2 (single isomer, unassigned) [Compound 2225], the EC50 was 1010 nM.
Compound O=C(NC[C@@H]1CNCCO1)N1CCc2ccccc2[C@@H]1c1ccc(F)cc1 [Compound 2209] has an EC50 of 730 nM.

Same assay, conditions: PGRN assay, Table C; secreted mouse PGRN in cell culture medium, ELISA
O=C(OC1[C@@H]2CC3C[C@@H]1CN(C3)C2)N1CCc2ccccc2[C@@H]1c1ccc(F)cc1 (stereo partly shown) [Compound 2097] was tested, and the EC50 was 2820 nM.

Same assay, conditions: PGRN assay, Table D; secreted mouse PGRN in cell culture medium, ELISA
Compound O=C(N[C@H]1CNCCOC1)N1CCc2ccccc2[C@@H]1c1ccc(F)cc1 (single isomer, unassigned) [Compound 2275] has an EC50 of 447 nM.
For CN(C(=O)N1CCc2ccccc2[C@H]1c1ccc(F)cc1)[C@H]1CCNC1 (single isomer, unassigned) [Compound 2249], the EC50 was > 10000 nM.
